The record followed here is patent publication US11285156B2, “Substituted piperazines as KRAS G12C inhibitors” (Amgen Inc., priority 2018, dated 2022).

Each structure is given as a SMILES string. Where two headings read alike, the source gives them in different places.

For assay [1], the system named is Phosphorylation of ERK1/2 in A549 cells. Nature of the assay: Phospho-ERK1/2 MSD assay in A549 cells. The note with it: read-out: p-ERK IC50 (2 h, A549; μM). Format: cell-based. The procedure, abridged: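 Phospho-ERK1/2 was quantified by MSD immunoassay in RIPA lysates of MIA PaCa-2 or A549 cells. Before lysis, cells received 10 ng/mL EGF for 10 min after 2 or 4 h exposure at 37° C. to a compound concentration series.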

For assay [2], the system named is Phosphorylation of ERK1/2 in MIA PaCa-2 cells. Nature of the assay: Phospho-ERK1/2 MSD assay in MIA PaCa-2 cells. The format is cell-based. Particulars: read-out: p-ERK IC50 (2 h, MiaPaCa-2; μM). Summed up:
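Phospho-ERK1/2 measured by MSD electrochemiluminescence kit in RIPA lysates of MIA PaCa-2 cells. Cells were treated with compound titrations for 2 or 4 h at 37 °C, 5% CO2, followed by a 10 min pulse of 10 ng/mL EGF.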

The target of assay [3] is GDP-bound KRAS protein (aa 1-169), containing both G12C and C118A amino acid substitutions (Homo sapiens (Human), UniProt P01116, C118A/G12C). Nature of the assay: Coupled nucleotide exchange assay (SOS-mediated nucleotide exchange, AlphaScreen). Format: biochemical. Particulars: 5 min compound pre-incubation; for IC50: read-out: Coupled exchange IC50 (5 min; μM). In general terms: Alpha assays give light when donor and acceptor beads are brought close together.
GDP-bound KRAS protein (aa 1-169), containing both G12C and C118A amino acid substitutions, sequence (P01116 other isoform, or with tags, fused parts or gaps G12C/C118A): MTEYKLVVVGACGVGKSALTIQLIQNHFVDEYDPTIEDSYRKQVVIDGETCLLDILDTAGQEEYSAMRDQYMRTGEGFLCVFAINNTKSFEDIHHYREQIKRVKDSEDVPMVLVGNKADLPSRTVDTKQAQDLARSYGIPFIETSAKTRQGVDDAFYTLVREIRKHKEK

Setting [4] is: Homo sapiens, A549, 2 h, 2 h compound treatment, A549 cells, EGF stimulated.
The mark [5] stands for this setting: Homo sapiens, MIA PaCa-2, 2 h, 2 h compound treatment, MIA PaCa-2 cells, EGF stimulated.
The mark [6] stands for this setting: 2 h compound treatment, MIA PaCa-2 cells, EGF stimulated.

Turning to `C=CC(=O)N1C[C@H](C)N(c2nc(=O)n(-c3c(C(C)C)nc(C4CC4)nc3C(C)C)c3nc(-c4ccccc4F)c(Cl)cc23)C[C@H]1C` [Example 168, 6-Chloro-1-(2-cyclopropyl-4,6-diisopropyl-pyrimidin-5-yl)-4-[(2S,5R)-2,5-dimethyl-4-prop-2-enoyl-piperazin-1-yl]-7-(2-fluorophenyl)pyrido[2,3-d]pyrimidin-2-one], the IC50 amounted to 4.34 µM in assay [1] (setting [4]), 0.198 µM in assay [2] (setting [5]) and 0.096 µM in assay [3].

On to `C=CC(=O)N1C[C@H](C)N(c2nc(=O)n(-c3c(C)ccnc3C(C)C)c3nc(-c4cccc(F)c4)c(Cl)cc23)C[C@H]1C` (atropisomer, axis not shown; (M)) [Example 92-52, (M)-6-Chloro-4-[(2S,5R)-2,5-dimethyl-4-prop-2-enoyl-piperazin-1-yl]-7-(3-fluorophenyl)-1-(2-isopropyl-4-methyl-3-pyridyl)pyrido [2,3-d]pyrimidin-2-one], for which the half-inhibitory concentration (IC50) in assay [1] (setting [4]) is above 7.5 µM; in assay [2] (setting [5]), 0.196 µM; in assay [3], 0.161 µM.

Take `C=CC(=O)N1C[C@H](C)N(c2nc(=O)n(-c3c(N(C)C)ccnc3C(C)C)c3nc(-c4ccccc4F)c(Cl)cc23)C[C@H]1C` [Example 55-51, 6-Chloro-1-[4-(dimethylamino)-2-isopropyl-3-pyridyl]-4-[(2S,5R)-2,5-dimethyl-4-prop-2-enoyl-piperazin-1-yl]-7-(2-fluorophenyl)pyrido[2,3-d]pyrimidin-2-one]: the figures for the IC50 in assay [1] (setting [4]), in assay [2] (setting [6]) and in assay [3] were above 7.5 µM, 0.079 µM and 0.19 µM, respectively.

`C=CC(=O)N1C[C@H](C)N(c2nc(=O)n(-c3c(CC)ncnc3C(C)C)c3nc(-c4ccccc4F)c(Cl)cc23)C[C@H]1C` (single isomer, unassigned) [Example 109-1-2]: the IC50 was above 7.5 µM in assay [1] (2 h compound treatment, A549 cells, EGF stimulated); 0.08 µM in assay [2] (setting [6]); 0.209 µM in assay [3].

Turning to `C=CC(=O)N1C[C@H](C)N(c2nc(=O)n(-c3ccc(S(C)(=O)=O)cc3C(C)C)c3nc(-c4ccccc4F)c(Cl)cc23)C[C@H]1C` [Example 208, 4-((2S,5R)-4-Acryloyl-2,5-dimethylpiperazin-1-yl)-6-chloro-7-(2-fluorophenyl)-1-(2-isopropyl-4-(methylsulfonyl)phenyl)pyrido[2,3-d]pyrimidin-2(1H)-one], the IC50 is above 7.5 µM in assay [1] (setting [4]) and 0.14 µM in assay [2] (setting [5]). In addition, the “Coupled exchange IC50 (5 min; μM)” value in assay [3] is 0.231 µM.

As for `C=CC(=O)N1C[C@H](C)N(c2nc(=O)n(-c3c(C(C)C)ncnc3C(C)C)c3nc(-c4ccccc4C(C)C)c(Cl)cc23)C[C@H]1C` [Example 100-4, 6-Chloro-1-(4,6-diisopropylpyrimidin-5-yl)-4-[(2S,5R)-2,5-dimethyl-4-prop-2-enoyl-piperazin-1-yl]-7-(2-isopropylphenyl) pyrido[2,3-d]pyrimidin-2-one], the concentration for half-maximal inhibition (IC50) in assay [1] (setting [4]) is above 7.5 µM; in assay [2] (setting [5]), 0.106 µM; in assay [3] it was 0.006 µM.

Consider `C=CC(=O)N1C[C@H](C)N(c2nc(=O)n(-c3c(C(C)C)nc(N(C)C)nc3C(C)C)c3nc(-c4ccccc4F)c(Cl)cc23)C[C@H]1C` [Example 107-2, 6-Chloro-1-[2-(dimethylamino)-4,6-diisopropyl-pyrimidin-5-yl]-4-[(2S,5R)-2,5-dimethyl-4-prop-2-enoyl-piperazin-1-yl]-7-(2-fluorophenyl)pyrido [2,3-d]pyrimidin-2-one], for which the figures for the 50% inhibitory concentration (IC50) in assay [1] (setting [4]), in assay [2] (setting [5]) and in assay [3] were 1.25 µM, 0.299 µM and 0.098 µM, respectively.

As to `C=CC(=O)N1C[C@H](C)N(c2nc(=O)n(-c3c(C(C)C)nc(NC(C)=O)nc3C(C)C)c3nc(-c4ccccc4F)c(Cl)cc23)C[C@H]1C` [Example 188, N-[5-[6-Chloro-4-[(2S,5R)-2,5-dimethyl-4-prop-2-enoyl-piperazin-1-yl]-7-(2-fluorophenyl)-2-oxo-pyrido[2,3-d]pyrimidin-1-yl]-4,6-diisopropyl-pyrimidin-2-yl]acetamide], the results for the IC50 in assay [1] (setting [4]) and in assay [2] (setting [5]) were 4.98 µM and 0.04 µM, respectively. Moreover, the “Coupled exchange IC50 (5 min; μM)” value in assay [3] was found to be 0.038 µM.

`C=CC(=O)N1C[C@H](C)N(c2nc(=O)n(-c3c(C(C)C)ncnc3C(C)C)c3nc(-c4ccccc4C(F)(F)F)c(Cl)cc23)C[C@H]1C` [Example 172, 6-Chloro-1-(4,6-diisopropylpyrimidin-5-yl)-4-[(2S,5R)-2,5-dimethyl-4-prop-2-enoyl-piperazin-1-yl]-7-[2-(trifluoromethyl)phenyl]pyrido[2,3-d]pyrimidin-2-one]: the IC50 is above 7.5 µM in assay [1] (setting [4]), 0.099 µM in assay [2] (setting [5]) and 0.08 µM in assay [3].

With `C=CC(=O)N1C[C@H](C)N(c2nc(=O)n(-c3c(C)ccnc3C(C)C)c3nc(-c4cccc(F)c4NC(C)=O)c(Cl)cc23)C[C@H]1C` [Example 129-12, N[2-(6-Chloro-4-[(2S,5R)-2,5-dimethyl-4-prop-2-enoyl-piperazin-1-yl]-1-(2-isopropyl-4-methyl-3-pvridyl)-2-oxo-pyrido[2,3-d]pyrimidin-7-yl]-6-fluoro-phenyl]acetamide], the concentration for half-maximal inhibition (IC50) in assay [1] (setting [4]) was above 7.5 µM; in assay [2] (setting [5]) it was 0.39 µM; in assay [3] it was 0.167 µM.

Turning to `C=CC(=O)N1C[C@H](C)N(c2nc(=O)n(-c3c(C(C)C)nc(CN4CCC4)nc3C(C)C)c3nc(-c4ccccc4F)c(Cl)cc23)C[C@H]1C` [Example 161, 1-[2-(Azetidin-1-ylmethyl)-4,6-diisopropyl-pyrimidin-5-yl]-6-chloro-4-[(2S,5R)-2,5-dimethyl-4-prop-2-enoyl-piperazin-1-yl]-7-(2-fluorophenyl)pyrido[2,3-d]pyrimidin-2-one], the IC50 in assay [1] (Homo sapiens, A549, 2 h) is above 7.5 µM; in assay [2] (Homo sapiens, MIA PaCa-2, 2 h) it was 0.061 µM; in assay [3], 0.294 µM.

On to `C=CC(=O)N1C[C@H](C)N(c2nc(=O)n(-c3c(Cl)ccnc3C(C)C)c3nc(OC)c(-c4ccccc4F)cc23)C[C@H]1C` [Example 55-52, 1-(4-Chloro-2-isopropyl-3-pyridyl)-4-[(2S,5R)-2,5-dimethyl-4-prop-2-enoyl-piperazin-1-yl]-6-(2-fluorophenyl)-7-methoxy-pyrido[2,3-d]pyrimidin-2-one], for which the results for the 50% inhibitory concentration (IC50) in assay [1] (setting [4]), in assay [2] (setting [5]) and in assay [3] were above 7.5 µM, 10 µM and 10.2 µM, respectively.

In the case of `C=CC(=O)N1C[C@H](C)N(c2nc(=O)n(-c3c(C(C)C)nc(N4CCC4)nc3C(C)C)c3nc(-c4ccccc4F)c(Cl)cc23)C[C@H]1C` [Example 107-5, 1-[2-(Azetidin-1-yl)-4,6-diisopropyl-pyrimidin-5-yl]-6-chloro-4-[(2S,5R)-2,5-dimethyl-4-prop-2-enoyl-piperazin-1-yl]-7-(2-fluorophenyl)pyrido [2,3-d]pyrimidin-2-one], the results for the IC50 in assay [1] (setting [4]), in assay [2] (setting [5]) and in assay [3] were 3.25 µM, 0.3 µM and 0.103 µM, respectively.

With `C=CC(=O)N1C[C@H](C)N(c2nc(=O)n(-c3c(C)ccnc3C(C)C)c3nc(-c4ccccc4S(C)(=O)=O)c(Cl)cc23)C[C@H]1C` [Example 210, 4-((2S,5R)-4-Acryloyl-2,5-dimethylpiperazin-1-yl)-6-chloro-1-(2-isopropyl-4-methylpyridin-3-yl)-7-(2-(methylsulfonyl)phenyl)pyrido[2,3-d]pyrimidin-2(1H)-one], the half-maximal inhibitory concentration (IC50) in assay [1] (setting [4]) is above 7.5 µM; in assay [2] (setting [5]) it was 0.039 µM. For the same compound, the “Coupled exchange IC50 (5 min; μM)” value in assay [3] amounted to 0.049 µM.

For the compound `C=CC(=O)N1C[C@H](C)N(c2nc(=O)n(-c3c(C)ccnc3C(C)C)c3nc(-c4ccccc4C)c(Cl)cc23)C[C@H]1C` (atropisomer, axis not shown; (M)) [Example 92-45, (M)-6-Chloro-4-[(2S,5R)-2,5-dimethyl-4-prop-2-enoyl-piperazin-1-yl]-1-(2-isopropyl-4-methyl-3-pyridyl)-7-(o-tolyl)pyrido[2,3-d]pyrimidin-2-one], the IC50 in assay [1] (setting [4]) is above 7.5 µM; in assay [2] (setting [5]), 0.023 µM; in assay [3] it was 0.025 µM.

`C=CC(=O)N1C[C@H](C)N(c2nc(=O)n(-c3c(CN4CCCC4)ccnc3C(C)C)c3nc(-c4ccccc4C(C)C)c(Cl)cc23)C[C@H]1C` [Example 141-3, 6-Chloro-4-[(2S,5R)-2,5-dimethyl-4-prop-2-enoyl-piperazin-1-yl]-7-(2-isopropylphenyl)-1-[2-isopropyl-4-(pyrrolidin-1-ylmethyl)-3-pyridyl]pyrido[2,3-d]pyrimidin-2-one]: the IC50 in assay [1] (setting [4]) is above 7.5 µM; in assay [2] (setting [5]), 0.331 µM; in assay [3], 0.197 µM.

Regarding `C=CC(=O)N1C[C@H](C)N(c2nc(=O)n(-c3c(C)ccnc3C(C)C)c3nc(-c4ccccc4C(F)F)c(Cl)cc23)C[C@H]1C` (atropisomer, axis not shown; (M)) [Example 92-16, (M)-6-Chloro-7-[2-(difluoromethyl)phenyl]-4-[(2S,5R)-2,5-dimethyl-4-prop-2-enoyl-piperazin-1-yl]-1-(2-isopropyl-4-methyl-3-pyridyl)pyrido [2,3-d]pyrimidin-2-one], the IC50 in assay [1] (setting [4]) is above 7.5 µM; in assay [2] (setting [5]), 0.015 µM; in assay [3] it was 0.043 µM.

A word on the IC50: it is the concentration that inhibits the measured activity by half.
